The target in this assay is T1, Gonadotropin-releasing hormone receptor (Homo sapiens, UniProt P30968).
T1 sequence (P30968 whole entry): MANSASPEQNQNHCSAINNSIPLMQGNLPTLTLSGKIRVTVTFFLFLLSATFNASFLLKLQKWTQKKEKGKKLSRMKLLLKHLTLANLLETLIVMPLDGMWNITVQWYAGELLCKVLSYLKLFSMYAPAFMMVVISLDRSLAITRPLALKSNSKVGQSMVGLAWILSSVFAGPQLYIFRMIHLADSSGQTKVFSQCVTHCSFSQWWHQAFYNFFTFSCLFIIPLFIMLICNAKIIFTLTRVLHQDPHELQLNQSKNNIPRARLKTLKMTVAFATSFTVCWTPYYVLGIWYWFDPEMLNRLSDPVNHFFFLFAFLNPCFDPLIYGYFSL
The assay can be described thus: Inhibitory Activity Assay. On the procedure: GnRH/HEK293 (human embryonic kidney cell 293) cultured cells in the logarithmic growth phase were washed with DPBS (Dulbecco's phosphate buffered saline) buffer, and an appropriate amount of 0.05% EDTA (ethylenediaminetetraacetic acid)-trypsin was added. The cells were placed in a carbon dioxide incubator at 37° C. for digestion for 1-2 minutes, and then removed from the incubator. A medium was added to the cells to terminate the digestion. Cells were dispersed by repeated pipetting and harvested by centrifugation. The cells were seeded into a 384-well Poly-Lysine-Coated. Cell Plate at a density of 20,000 cells per well. […] The fluorescence signal was read. Then 10 μL of the reference compound as an agonist was added, and the fluorescent signal was read. […] The fluorescent signal was read. Then 10 μL of agonist with a concentration of 6×EC50 was added to the cell plate and the fluorescent signal was read.IC50 of the compound to inhibit the calcium flow of gonadotropin-releasing hormone receptor, i.e., the drug concentration when the Ca2+ flow was inhibited by half in the cells stably expressing the GnRH receptor, was calculated. The IC50 of the drug was calculated by GraphPad Prism 5.0 software.

SMILES strings stand for the structures.

In general, IC50 refers to the concentration that inhibits the measured activity by half.

Consider `Cc1c(F)ccc2c1COc1cc(C3C(=O)Nc4csc(C(=O)O)c4C3=O)c(F)cc1OCCCO2` (configuration not stated) [US20240158413, Compound 1], for which the IC50 was determined as 3.2 nM.
In the case of `O=C(O)c1scc2c1C(=O)C(c1cc3c(cc1F)OCC1(CC1)COc1ccc(F)c(F)c1CO3)C(=O)N2` (configuration not stated) [US20240158413, Compound 2], the IC50 was 9.2 nM.

The record behind these values is BindingDB's records for patent US20240158413 (Soter Biopharma, 2024).
